Legend:
MCF-7 = experiment: MTT anti-proliferative assay, MCF-7 breast cancer cells; assay type: cell-based; conditions: Homo sapiens, MCF7, 48 h exposure, mean ± SD of three separate experiments
Experimental: (§1) 1. Anti-proliferative activity toward human breast cell lines
(§2) The two examined human breast cancer cell lines (T-47D and MCF-7) have been obtained from American Type Culture Collection (ATCC). Cells lines were maintained as monolayers in Dulbecco’s Modified Eagle’s Medium (DMEM) supplemented with 10% FBS, 2 mM L-glutamine, 100 U/ml penicillin and 100µg/ml streptomycin sulfate. Cells were sub-cultured with trypsine /EDTA solution, counted with haemocytometer and plated onto 96-well plates (5000 cells/well) and left overnight to form a semi-confluent monolayer. Cell monolayers were treated in quadrates with vehicle (DMSO, 0.1% v/v), test samples or Adriamycin as positive control for an exposure time of 48 h. At the end of exposure, MTT solution in PBS (5 mg/ml) was then added to all well including no cell blank and left to incubate for 90 min. The formation of formazan crystals were visually confirmed using phase contract microscopy. DMSO (100 µl/well) was added to dissolve the formazan crystals with shaking for 10 min after which the absorbance was read at 590 nm against no cell blanks on a FLuo Star Optima microplate reader (BMG technologies, Germany).
(§3) Cell proliferation was calculated comparing the OD values of the DMSO control wells and those of the samples represented as % proliferation to the control. Dose-response experiment was performed on samples producing > or =50% loss of cell proliferation using five serial 2-fold […]
(§4) IC50 values (concentration of sample causing 50% loss of cell proliferation of the vehicle control) were calculated using non-linear regression curve fitting of the dose response plots on GraphPad Prism V.6.0 software. […]

T-47D = experiment: MTT anti-proliferative assay, T-47D breast cancer cells; assay type: cell-based; conditions: Homo sapiens, T47D, 48 h exposure, mean ± SD of three separate experiments
Experimental: as §1, §2, §3, §4

CDK2 = target: T1, CDK2 (Homo sapiens, UniProt P24941); experiment: CDK2 kinase inhibition (CDK2 Kinase Enzyme System, Promega); assay type: biochemical; conditions: mean ± SD of three separate experiments
T1 construct: purchased Promega, Milan, Italy V2971
Experimental: (§5) 2. CDK2/GSK-3β Kinase Inhibitory Activities
(§6) The CDK2 and GSK-3β inhibitory activities were determined for hybrids 5a-g using the CDK2
(§7) Kinase Enzyme System (catalog No. V2971) (Promega, Milan, Italy), and GSK3β Assay Kit

GSK-3β = target: T2, GSK-3β (Homo sapiens, UniProt P49841); experiment: GSK-3β kinase inhibition (GSK3β Assay Kit, BPS Biosciences); assay type: biochemical; conditions: mean ± SD of three separate experiments
T2 construct: purchased BPS Biosciences, San Diego, CA, USA 79700
Experimental: as §5, §6, §7

T2 sequence (P49841 whole entry): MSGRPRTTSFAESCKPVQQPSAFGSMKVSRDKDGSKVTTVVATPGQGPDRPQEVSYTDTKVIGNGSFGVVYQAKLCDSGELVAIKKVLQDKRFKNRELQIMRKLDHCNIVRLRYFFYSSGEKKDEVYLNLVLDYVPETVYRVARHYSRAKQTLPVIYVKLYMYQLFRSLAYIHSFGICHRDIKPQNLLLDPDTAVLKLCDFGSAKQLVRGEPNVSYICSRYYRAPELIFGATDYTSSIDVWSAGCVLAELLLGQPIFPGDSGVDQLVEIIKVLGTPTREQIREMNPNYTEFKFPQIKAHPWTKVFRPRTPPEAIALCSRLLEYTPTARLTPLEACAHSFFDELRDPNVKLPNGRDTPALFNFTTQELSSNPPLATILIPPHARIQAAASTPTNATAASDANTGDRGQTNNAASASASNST

Row | Structure (SMILES) | IC50 (MCF-7) [µM] | IC50 (T-47D) [µM] | IC50 (CDK2) [µM] | IC50 (GSK-3β) [µM] | melting point [°C]
1 | O=C1Nc2ccccc2C1=NNC(=O)c1cc2cc(Br)ccc2o1 [5a, 5-Bromo-N'-(2-oxoindolin-3-ylidene)benzofuran-2-carbohydrazide] | 5.47 ± 0.16 | 9.67 ± 0.31 | 0.141 ± 0.0077 | 0.137 ± 0.0075 | > 300
2 | O=C1Nc2ccc(F)cc2C1=NNC(=O)c1cc2cc(Br)ccc2o1 [5b, 5-Bromo-N'-(5-fluoro-2-oxoindolin-3-ylidene)benzofuran-2-carbohydrazide] | 12.9 ± 0.38 | 1.27 ± 0.04 | 0.0525 ± 0.0029 | 0.212 ± 0.012 | > 300
3 | O=C1Nc2ccc(Cl)cc2C1=NNC(=O)c1cc2cc(Br)ccc2o1 [5c, 5-Bromo-N'-(5-chloro-2-oxoindolin-3-ylidene)benzofuran-2-carbohydrazide] | 12.5 ± 0.37 | 6.03 ± 0.19 | 0.0854 ± 0.0046 | 0.102 ± 0.0056 | > 300
4 | Cc1cc(C)c2c(c1)C(=NNC(=O)c1cc3cc(Br)ccc3o1)C(=O)N2 [5g, 5-Bromo-N'-(5,7-dimethyl-2-oxoindolin-3-ylidene)benzofuran-2-carbohydrazide] | 12 ± 0.35 | 6.65 ± 0.21 | 0.105 ± 0.0057 | 0.0755 ± 0.0041 | > 300
5 | CN1C(=O)C(=NNC(=O)c2cc3cc(Br)ccc3o2)c2ccccc21 [7a, 5-Bromo-N'-(1-methyl-2-oxoindolin-3-ylidene)benzofuran-2-carbohydrazide] | 10.4 ± 1.01 | 11.8 ± 1.05 |  |  | 260 to 262
6 | C=CCN1C(=O)C(=NNC(=O)c2cc3cc(Br)ccc3o2)c2ccccc21 [7b, N'-(1-Allyl-2-oxoindolin-3-ylidene)-5-bromobenzofuran-2-carbohydrazide] | 2.64 ± 0.07 | 12.2 ± 0.4 |  |  | 207 to 209
7 | CC(C)CN1C(=O)C(=NNC(=O)c2cc3cc(Br)ccc3o2)c2ccccc21 [7c, 5-Bromo-N'-(1-isobutyl-2-oxoindolin-3-ylidene)benzofuran-2-carbohydrazide] | 37 ± 1.87 | 43.3 ± 2.39 |  |  | 216 to 218
8 | CCOC(=O)CN1C(=O)C(=NNC(=O)c2cc3cc(Br)ccc3o2)c2ccccc21 [7d, Ethyl-2–(3-(2–(5-bromobenzofuran-2-carbonyl)hydrazono)-2-oxoindolin-1-yl)acetate] | 7.48 ± 0.22 | 19 ± 0.62 |  |  | 215 to 216
9 | O=C(NN=C1C(=O)N(Cc2ccccc2)c2ccccc21)c1cc2cc(Br)ccc2o1 [7e, N'-(1-Benzyl-2-oxoindolin-3-ylidene)-5-bromobenzofuran-2-carbohydrazide] | 8.33 ± 0.24 | 11.8 ± 0.38 |  |  | 248 to 250
10 | O=C(NN=C1C(=O)N(CCc2ccccc2)c2ccccc21)c1cc2cc(Br)ccc2o1 [7f, 5-Bromo-N'-(2-oxo-1-phenethylindolin-3-ylidene)benzofuran-2-carbohydrazide] | 24.7 ± 0.72 | 38.7 ± 1.26 |  |  | 239 to 241
11 | CC(C)CN1C(=O)C(=NNC(=O)c2cc3cc(Br)ccc3o2)c2cc(Br)ccc21 [7g, 5-Bromo-N'-(5-bromo-1-isobutyl-2-oxoindolin-3-ylidene)benzofuran-2-carbohydrazide] | 24.8 ± 0.73 | 9.67 ± 0.31 |  |  | 244 to 246
12 | O=C(NN=C1C(=O)N(Cc2ccccc2)c2ccc(Br)cc21)c1cc2cc(Br)ccc2o1 [7h, N'-(1-Benzyl-5-bromo-2-oxoindolin-3-ylidene)-5-bromobenzofuran-2-carbohydrazide] | 4.32 ± 0.12 | 1.72 ± 0.04 |  |  | 236 to 237
13 | CC(C)CN1C(=O)C(=NNC(=O)Nc2cc3cc(Br)ccc3o2)c2ccccc21 [13a, N-(5-Bromobenzofuran-2-yl)-2–(1-isobutyl-2-oxoindolin-3-ylidene)hydrazine-1-carboxamide] | 18.2 ± 0.53 | 3.22 ± 0.1 |  |  | 208 to 210
14 | O=C(NN=C1C(=O)N(Cc2ccccc2)c2ccccc21)Nc1cc2cc(Br)ccc2o1 [13b, 2–(1-Benzyl-2-oxoindolin-3-ylidene)-N-(5-bromobenzofuran-2-yl)hydrazine-1-carboxamide] | 5.7 ± 0.16 | 10.9 ± 0.35 |  |  | 217 to 219

Reference: publication PMC7751407, “Novel oxindole/benzofuran hybrids as potential dual CDK2/GSK-3β inhibitors targeting breast cancer: design, synthesis, biological evaluation, and in silico studies” (Journal of Enzyme Inhibition and Medicinal Chemistry, 2020)
